Measurements reported in patent publication US20060252710A1, “6-11 Bridged oxime erythromycin derivatives” (priority 2005, published 2006).
Converted amounts (≈) assume the structure as drawn. Like-named read-outs stand apart in the source and are kept apart here.

Experiments:
Assay in all cases: MIC by micro-dilution method
Type in all cases: cell-based
H. influenzae 33929 = settings: Haemophilus influenzae
Description: (§1) Antibacterial activity studies may be carried out using suitable assays as are known in the art. Susceptibility tests can be used to quantitatively measure the in vitro activity of an antimicrobial agent against a given bacterial isolate. Compounds are tested for in vitro antibacterial activity by a micro-dilution method. Minimal Inhibitory Concentration (MIC) is determined in 96 well microtiter plates utilizing the appropriate Mueller Hinton Broth medium (CAMHB) for the observed bacterial isolates. Antimicrobial agents are serially diluted (2-fold) in DMSO to produce a concentration range from about 64 μg/ml to about 0.03 μg/ml. The diluted compounds (2 μl/well) are then transferred into sterile, uninoculated CAMHB (0.2 mL) by use of a 96 fixed tip-pipeting station. The inoculum for each bacterial strain is standardized to 5×10^5 CFU/mL by optical comparison to a 0.5 McFarland turbidity standard. The plates are inoculated with 10 μI/well of adjusted bacterial inoculum. The 96 well plates are covered and incubated at 35+/−2° C. for 24 hours in ambient air environment. Following incubation, plate wells are visually examined by Optical Density measurement for the presence of growth (turbidity). The lowest concentration of an antimicrobial agent at which no visible growth occurs is defined as the MIC.
(§2) All in vitro testing follows the guidelines described in the Approved Standards M7-A4 protocol, published by the National Committee for Clinical Laboratory Standards (NCCLS).
(§3) The values in the table are minimum inhibition concentration (MIC) and are expressed as ug/mL. Assays for MIC are described above.

S. aureus 27660 = settings: Staphylococcus aureus
Description: as §1, §2, §3

S. aureus 29213 = settings: Staphylococcus aureus
Description: as §1, §2, §3

S. aureus 33591 = settings: Staphylococcus aureus
Description: as §1, §2, §3

S. pneumoniae 700906 = settings: Streptococcus pneumoniae
Description: as §1, §2, §3

S. pneumoniae 7701 = settings: Streptococcus pneumoniae
Description: as §1, §2, §3

S. pyogenes 1323 = settings: Streptococcus pyogenes
Description: as §1, §2, §3

S. pyogenes 2912 = settings: Streptococcus pyogenes
Description: as §1, §2, §3

[1] = Table IV, species from U.S. Pat. No. 6,878,691 and US 2004/0053861, read-out: minimum inhibition concentration (MIC) H. influenzae 33929
[2] = Table IV, species from U.S. Pat. No. 6,878,691 and US 2004/0053861, read-out: minimum inhibition concentration (MIC) S. aureus 27660
[3] = Table IV, species from U.S. Pat. No. 6,878,691 and US 2004/0053861, read-out: minimum inhibition concentration (MIC) S. aureus 29213
[4] = Table IV, species from U.S. Pat. No. 6,878,691 and US 2004/0053861, read-out: minimum inhibition concentration (MIC) S. aureus 33591
[5] = Table IV, species from U.S. Pat. No. 6,878,691 and US 2004/0053861, read-out: minimum inhibition concentration (MIC) S. pneumoniae 700906
[6] = Table IV, species from U.S. Pat. No. 6,878,691 and US 2004/0053861, read-out: minimum inhibition concentration (MIC) S. pneumoniae 7701
[7] = Table IV, species from U.S. Pat. No. 6,878,691 and US 2004/0053861, read-out: minimum inhibition concentration (MIC) S. pyogenes 1323
[8] = Table IV, species from U.S. Pat. No. 6,878,691 and US 2004/0053861, read-out: minimum inhibition concentration (MIC) S. pyogenes 2912
[9] = Table V, compounds of this invention, read-out: minimum inhibition concentration H. influenzae 33929
[10] = Table V, compounds of this invention, read-out: minimum inhibition concentration S. aureus 27660
[11] = Table V, compounds of this invention, read-out: minimum inhibition concentration S. aureus 29213
[12] = Table V, compounds of this invention, read-out: minimum inhibition concentration S. aureus 33591
[13] = Table V, compounds of this invention, read-out: minimum inhibition concentration S. pneumoniae 700906
[14] = Table V, compounds of this invention, read-out: minimum inhibition concentration S. pneumoniae 7701
[15] = Table V, compounds of this invention, read-out: minimum inhibition concentration S. pyogenes 1323
[16] = Table V, compounds of this invention, read-out: minimum inhibition concentration S. pyogenes 2912

Row | SMILES | MIC (H. influenzae 33929; [1]) [µg/mL] | MIC (S. aureus 27660; [2]) [µg/mL] | MIC (S. aureus 29213; [3]) [µg/mL] | MIC (S. aureus 33591; [4]) [µg/mL] | MIC (S. pneumoniae 700906; [5]) [µg/mL] | MIC (S. pneumoniae 7701; [6]) [µg/mL] | MIC (S. pyogenes 1323; [7]) [µg/mL] | MIC (S. pyogenes 2912; [8]) [µg/mL] | MIC (H. influenzae 33929; [9]) [µg/mL] | MIC (S. aureus 27660; [10]) [µg/mL] | MIC (S. aureus 29213; [11]) [µg/mL] | MIC (S. aureus 33591; [12]) [µg/mL] | MIC (S. pneumoniae 700906; [13]) [µg/mL] | MIC (S. pneumoniae 7701; [14]) [µg/mL] | MIC (S. pyogenes 1323; [15]) [µg/mL] | MIC (S. pyogenes 2912; [16]) [µg/mL]
1 | CC[C@H]1OC(=O)[C@H](C)C(=O)[C@H](C)[C@@H](O[C@@H]2O[C@H](C)C[C@H](N(C)C)[C@H]2O)[C@@]2(C)C[C@@H](C)/C(=N\C(C)=O)[C@H](C)[C@@H](OC/C(=N\OCc3nccc4ccccc34)CO2)[C@]1(C)O [Compound A1] | 8 (≈ 9.7 µM) | 0.13 (≈ 0.158 µM) | 0.25 (≈ 0.303 µM) | > 64 | 0.25 (≈ 0.303 µM) | 0.5 (≈ 0.606 µM) | 0.5 (≈ 0.606 µM) | 8 (≈ 9.7 µM) |  |  |  |  |  |  |  | 
2 | CC[C@H]1OC(=O)[C@H](C)C(=O)[C@H](C)[C@@H](O[C@@H]2O[C@H](C)C[C@H](N(C)C)[C@H]2O)[C@@]2(C)C[C@@H](C)/C(=N\C(C)=O)[C@H](C)[C@@H](OC/C(=N\OCc3ccc4nccnc4c3)CO2)[C@]1(C)O [Compound A2] | 16 (≈ 19.4 µM) | 0.25 (≈ 0.303 µM) | 0.5 (≈ 0.605 µM) | > 64 | 0.25 (≈ 0.303 µM) | 0.5 (≈ 0.605 µM) | 1 (≈ 1.21 µM) | 16 (≈ 19.4 µM) |  |  |  |  |  |  |  | 
3 | CC[C@H]1OC(=O)[C@H](C)C(=O)[C@H](C)[C@@H](O[C@@H]2O[C@H](C)C[C@H](N(C)C)[C@H]2O)[C@@]2(C)C[C@@H](C)/C(=N\C(C)=O)[C@H](C)[C@@H](OC/C(=N\OCc3cn4ccncc4n3)CO2)[C@]1(C)O [Compound A3] | 8 (≈ 9.82 µM) | 0.25 (≈ 0.307 µM) | 0.25 (≈ 0.307 µM) | > 64 | 0.13 (≈ 0.16 µM) | 2 (≈ 2.45 µM) | 16 (≈ 19.6 µM) | 32 (≈ 39.3 µM) |  |  |  |  |  |  |  | 
4 | CC[C@H]1OC(=O)[C@H](C)[C@@H](OC2C[C@@](C)(OC)[C@@H](OC(C)=O)[C@H](C)O2)[C@H](C)[C@@H](O[C@@H]2O[C@H](C)C[C@H](N(C)C)[C@H]2O)[C@@]2(C)C[C@@H](C)C(=O)[C@H](C)[C@@H](OCC(=Cc3cnc4ccccc4c3)CO2)[C@]1(C)O (stereo partly shown) [Compound A4] | > 64 |  |  |  |  | 8 (≈ 8.38 µM) | 64 (≈ 67 µM) | 64 (≈ 67 µM) |  |  |  |  |  |  |  | 
5 | CC[C@H]1OC(=O)[C@H](C)[C@@H](O)[C@H](C)[C@@H](O[C@@H]2O[C@H](C)C[C@H](N(C)C)[C@H]2O)[C@@]2(C)C[C@@H](C)C(=N)[C@H](C)[C@@H](OC/C(=N\OCc3ccccc3)CO2)[C@]1(C)O [Compound A5] | > 64 |  |  | > 64 |  | 2 (≈ 2.73 µM) | 64 (≈ 87.2 µM) | > 64 |  |  |  |  |  |  |  | 
6 | CC[C@H]1OC(=O)[C@H](C)[C@@H](OC(=O)Cc2cccnc2)[C@H](C)[C@@H](O[C@@H]2O[C@H](C)C[C@H](N(C)C)[C@H]2O)[C@@]2(C)C[C@@H](C)/C(=N\C(C)=O)[C@H](C)[C@@H](OC/C(=C\C=C\c3ccccc3)CO2)[C@]1(C)O [Compound A6] | > 64 | 1 (≈ 1.12 µM) | 1 (≈ 1.12 µM) | 16 (≈ 18 µM) | 8 (≈ 8.99 µM) | 1 (≈ 1.12 µM) | 2 (≈ 2.25 µM) | 8 (≈ 8.99 µM) |  |  |  |  |  |  |  | 

The remaining lines, values ahead:

Row | MIC (H. influenzae 33929; [1]) [µg/mL] | MIC (S. aureus 27660; [2]) [µg/mL] | MIC (S. aureus 29213; [3]) [µg/mL] | MIC (S. aureus 33591; [4]) [µg/mL] | MIC (S. pneumoniae 700906; [5]) [µg/mL] | MIC (S. pneumoniae 7701; [6]) [µg/mL] | MIC (S. pyogenes 1323; [7]) [µg/mL] | MIC (S. pyogenes 2912; [8]) [µg/mL] | MIC (H. influenzae 33929; [9]) [µg/mL] | MIC (S. aureus 27660; [10]) [µg/mL] | MIC (S. aureus 29213; [11]) [µg/mL] | MIC (S. aureus 33591; [12]) [µg/mL] | MIC (S. pneumoniae 700906; [13]) [µg/mL] | MIC (S. pneumoniae 7701; [14]) [µg/mL] | MIC (S. pyogenes 1323; [15]) [µg/mL] | MIC (S. pyogenes 2912; [16]) [µg/mL] | SMILES
7 |  |  |  |  |  |  |  |  | 2 (≈ 2.48 µM) | ≤ 0.06 | ≤ 0.06 | > 64 | 1 (≈ 1.24 µM) | ≤ 0.06 | 0.25 (≈ 0.311 µM) | 4 (≈ 4.97 µM) | CC[C@H]1OC(=O)[C@H](C)C(=O)[C@H](C)[C@@H](O[C@@H]2O[C@H](C)C[C@H](N(C)C)[C@H]2O)[C@@]2(C)C[C@@H](C)C(=O)[C@H](C)[C@@H](OC/C(=N\OCc3ccc4nc(N)sc4c3)CO2)[C@]1(C)O [Compound B1]
8 |  |  |  |  |  |  |  |  | 2 (≈ 2.36 µM) | ≤ 0.06 | 0.125 (≈ 0.147 µM) | > 64 | 0.5 (≈ 0.59 µM) | 0.125 (≈ 0.147 µM) | 0.5 (≈ 0.59 µM) | 2 (≈ 2.36 µM) | CC[C@H]1OC(=O)[C@@](C)(F)C(=O)[C@H](C)[C@@H](O[C@@H]2O[C@H](C)C[C@H](N(C)C)[C@H]2O)[C@@]2(C)C[C@@H](C)/C(=N\C(C)=O)[C@H](C)[C@@H](OC/C(=N\OCc3ccc4onc(N)c4c3)CO2)[C@]1(C)O [Compound B2]
9 |  |  |  |  |  |  |  |  | 2 (≈ 2.54 µM) | ≤ 0.06 | ≤ 0.06 | 32 (≈ 40.6 µM) | 0.25 (≈ 0.317 µM) | 0.125 (≈ 0.158 µM) | 0.5 (≈ 0.634 µM) | 4 (≈ 5.07 µM) | CC[C@H]1OC(=O)[C@H](C)C(=O)[C@H](C)[C@@H](O[C@@H]2O[C@H](C)C[C@H](N(C)C)[C@H]2O)[C@@]2(C)C[C@@H](C)C(=O)[C@H](C)[C@@H](OC/C(=N\OCc3ccc4oc(N)nc4c3)CO2)[C@]1(C)O [Compound B3]
10 |  |  |  |  |  |  |  |  | 4 (≈ 4.82 µM) | 0.125 (≈ 0.151 µM) | 0.125 (≈ 0.151 µM) | 32 (≈ 38.6 µM) | 0.125 (≈ 0.151 µM) | 0.125 (≈ 0.151 µM) | 0.5 (≈ 0.602 µM) | 1 (≈ 1.2 µM) | CC[C@H]1OC(=O)[C@H](C)C(=O)[C@H](C)[C@@H](O[C@@H]2O[C@H](C)C[C@H](N(C)C)[C@H]2O)[C@@]2(C)C[C@@H](C)/C(=N\C(C)=O)[C@H](C)[C@@H](OC/C(=N\OCc3ccc4oc(N)nc4c3)CO2)[C@]1(C)O [Compound B4]
